Broadly, the efflux ratio is a quotient of directional permeabilities that is used to spot active efflux. The term IC50 denotes the concentration that inhibits the measured activity by half. Read a low IC50 as greater potency in that assay.

We go through 17 compounds from patent publication US10995101B2, “2-oxo-thiazole derivatives as A2A inhibitors and compounds for use in the treatment of cancers” (iTeos Therapeutics SA, priority 2017, dated 2021).

A short description of one data set: in vitro. Particulars: human, Caco-2, pH 7.4.
The next data set concerns the target A2A receptor (Homo sapiens, UniProt P29274). The data set can be described thus: Inhibition of cAMP production in HEK cells. Type of data set: cell-based. Particulars: HEK-293 cells with A2A receptor. On the technique in general: Changes in cAMP serve as a functional read-out for many G protein-coupled receptors.
Where [1] appears, read: IC50 (nM) (3 nM NECA as agonist, 0.1% BSA), 3 nM NECA as agonist, 0.1% BSA.
Setting [2] is: IC50 (nM) (5 μM Adenosine as agonist, 2.0% HSA), 5 μM Adenosine as agonist, 2.0% HSA.
The mark [3] stands for this setting: IC50 (nM) (5 nM NECA as agonist, 2% HSA), 5 nM NECA as agonist, 2% HSA.

SMILES strings stand for the structures.

Sequence of A2A receptor (P29274 whole entry): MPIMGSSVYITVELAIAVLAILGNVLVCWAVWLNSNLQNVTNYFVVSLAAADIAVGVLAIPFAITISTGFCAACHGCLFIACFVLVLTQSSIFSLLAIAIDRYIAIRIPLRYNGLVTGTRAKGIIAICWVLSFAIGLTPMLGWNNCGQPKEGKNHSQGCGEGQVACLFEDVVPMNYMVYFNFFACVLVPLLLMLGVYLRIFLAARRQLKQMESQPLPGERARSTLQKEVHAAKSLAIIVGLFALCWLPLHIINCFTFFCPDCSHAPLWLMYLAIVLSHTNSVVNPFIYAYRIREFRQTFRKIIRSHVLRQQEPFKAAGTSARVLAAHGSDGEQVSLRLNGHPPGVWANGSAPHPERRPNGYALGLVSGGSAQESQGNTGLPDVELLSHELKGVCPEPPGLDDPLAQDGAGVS
Procedure for in vitro: 2 μM dosing solutions for reference compounds and test compounds are prepared by spiking the appropriate volume of intermediate solution to TB with and without 1 μM Zosuquidar. The final concentration of DMSO is no more than 1% (v/v).
Caco-2 cells are grown in MEM supplemented with 2 mM L-glutamine, 10% FBS, 100 U/mL penicillin-G and 100 μg/mL streptomycin. The cells are incubated at 37° C., 5% CO2 and relatively saturated humidity. After reaching 80-90% confluency, the cells are gently detached with 0.05% trypsin-EDTA solution.
TB and dosing solutions were pre-warmed to 37° C. before transport assay. The cell monolayer was washed twice with HBSS containing 10 mM HEPES. For A-B (apical to basolateral) directional transport assay, 75 μL dosing solution is added to the apical well. Fill each basolateral well with 250 μL TB. For B-A (basolateral to apical) directional transport assay, 250 μL of dosing solution is added to the basolateral well after filling each apical well with 75 μL TB. […] The plates are incubated for 120 minutes at 37° C. with 5% CO2 and saturated humidity. The time zero samples are generated by mixing 50 μL initial dosing solution of test compound or reference compound with 100 μL TB and 250 μL quench solution (acetonitrile (ACN) or other appropriate solvent with internal standard(s), based on the bioanalytical method development). At 120 minutes, 150 μL of solution is collected from each A-B receiver well followed by addition of 250 μL quench solution to get A-B receiver sample. And for other samples (A-B donor, B-A donor and receiver), 50 μL of solution is collected from each corresponding well followed by addition of 250 μL quench solution and 100 μL TB. All samples are vortex-mixed and centrifuged at 3220 g for 20 minutes. Subsequently, supernatant is diluted with ultra pure water for LC-MS/MS analysis. The concentrations of test compound in all samples are determined by LC-MS/MS and expressed as peak area ratio of analyte to internal standard.
The concentration of samples is expressed using the peak area ratio of Analyte to Internal Standard (Analyte/IS).
The efflux ratio is calculated using the following equation: Efflux ratio=Papp(A−B)/Papp(B−A) • where Papp (A−B) and Papp (B−A) are the Papp values of compound in Apical to Basolateral and Basolateral to Apical directional transport, respectively.

In the case of `Nc1nc2c(sc(=O)n2CCN2CCN(c3cc(OC[C@H](O)CO)c(F)cc3F)CC2)c2nc(-c3ccco3)nn12` [Compound 128, (R)-5-amino-3-(2-(4-(5-(2,3-dihydroxypropoxy)-2,4-difluorophenyl)piperazin-1-yl)ethyl)-8-(furan-2-yl)thiazolo[5,4-e][1,2,4]triazolo[1,5-c]pyrimidin-2(3H)-one], the efflux ratio at 120 min, 2 μM in “in vitro” is 419. The IC50 is 0.4 nM at A2A receptor (setting [1]) and 46 nM on A2A receptor (setting [2]).

As to `CS(=O)(=O)CCOc1ccc(N2CCN(CCn3c(=O)sc4c3nc(N)n3nc(-c5ccco5)nc43)CC2)c(F)c1` [Compound 78, 5-amino-3-(2-(4-(2-fluoro-4-(2-(methylsulfonyl)ethoxy)phenyl)piperazin-1-yl)ethyl)-8-(furan-2-yl)thiazolo[5,4-e][1,2,4]triazolo[1,5-c]pyrimidin-2(3H)-one], the efflux ratio at 120 min, 2 μM in “in vitro” turned out to be 45. Besides, the IC50 stood at 0.6 nM at A2A receptor (setting [1]) and 130 nM on A2A receptor (setting [2]).

Take `C[S@@+]([O-])CCNC(=O)c1ccc(N2CCN(CCn3c(=O)sc4c3nc(N)n3nc(-c5ccco5)nc43)CC2)c(F)c1` [Compound 124, (R)-4-(4-(2-(5-amino-8-(furan-2-yl)-2-oxothiazolo[5,4-e][1,2,4]triazolo[1,5-c]pyrimidin-3(2H)-yl)ethyl)piperazin-1-yl)-3-fluoro-N-(2-(methylsulfinyl)ethyl)benzamide]: the efflux ratio at 120 min, 2 μM in the data set “in vitro” was 54. Also, the IC50 at A2A receptor (setting [1]) is 2.3 nM; on A2A receptor (setting [2]) it was 2040 nM.

In the case of `Nc1nc2c(sc(=O)n2CCN2CCN(c3ccc(O[C@H]4COC[C@@H]4O)cc3F)CC2)c2nc(-c3ccco3)nn12` [Compound 84, 5-amino-3-(2-(4-(2-fluoro-4-(((3S,4S)-4-hydroxytetrahydrofuran-3-yl)oxy)phenyl)piperazin-1-yl)ethyl)-8-(furan-2-yl)thiazolo[5,4-e][1,2,4]triazolo[1,5-c]pyrimidin-2(3H)-one], in the data set “in vitro”, the efflux ratio at 120 min, 2 μM came out at 24. Further, the IC50 on A2A receptor (setting [1]) turned out to be 0.1 nM; at A2A receptor (setting [2]) it was 71 nM.

With `Nc1nc2c(sc(=O)n2CCN2CCN(c3ccc(OCCO)cc3)CC2)c2nc(-c3ccco3)nn12` [Compound 9, 5-amino-8-(furan-2-yl)-3-(2-(4-(4-(2-hydroxyethoxy)phenyl)piperazin-1-yl)ethyl)thiazolo[5,4-e][1,2,4]triazolo[1,5-c]pyrimidin-2(3H)-one], in the data set “in vitro”, the efflux ratio at 120 min, 2 μM is 8. For the same compound, at A2A receptor (setting [1]), the IC50 turned out to be 3.4 nM.

As for `Nc1nc2c(sc(=O)n2CCN2CCN(c3cc(C(=O)NCC4COCCN4)c(F)cc3F)CC2)c2nc(-c3ccco3)nn12` (stereo not drawn) [Compound 98, 5-(4-(2-(5-amino-8-(furan-2-yl)-2-oxothiazolo[5,4-e][1,2,4]triazolo[1,5-c]pyrimidin-3(2H)-yl)ethyl)piperazin-1-yl)-2,4-difluoro-N-(morpholin-3-ylmethyl)benzamide], the efflux ratio at 120 min, 2 μM in “in vitro” came out at 53. In addition, the IC50 worked out at 0.1 nM on A2A receptor (setting [1]) and 7 nM at A2A receptor (setting [2]).

Take `Nc1nc2c(sc(=O)n2CCN2CCN(c3ccc(O[C@@H]4CNC[C@@H]4F)cc3F)CC2)c2nc(-c3ccco3)nn12` [Compound 103, 5-amino-3-(2-(4-(2-fluoro-4-(((3R,4S)-4-fluoropyrrolidin-3-yl)oxy)phenyl)piperazin-1-yl)ethyl)-8-(furan-2-yl)thiazolo[5,4-e][1,2,4]triazolo[1,5-c]pyrimidin-2(3H)-one]: the efflux ratio at 120 min, 2 μM in “in vitro” came to 20. This compound registered an IC50 at A2A receptor (setting [1]) of 1.1 nM.

Consider `Nc1nc2c(sc(=O)n2CCN2CCN(c3ccc(O[C@@H]4COC[C@H]4O)cc3F)CC2)c2nc(-c3ccco3)nn12` [Compound 83, 5-amino-3-(2-(4-(2-fluoro-4-(((3R,4R)-4-hydroxytetrahydrofuran-3-yl)oxy)phenyl)piperazin-1-yl)ethyl)-8-(furan-2-yl)thiazolo[5,4-e][1,2,4]triazolo[1,5-c]pyrimidin-2(3H)-one], for which the efflux ratio at 120 min, 2 μM in “in vitro” worked out at 29. The IC50 on A2A receptor (setting [1]) was 0.4 nM; on A2A receptor (setting [2]), 212 nM.

On to `Nc1nc2c(sc(=O)n2CCN2CCN(c3cc(O[C@@H]4CCNC4=O)c(F)cc3F)CC2)c2nc(-c3ccco3)nn12` [Compound 96, (R)-5-amino-3-(2-(4-(2,4-difluoro-5-((2-oxopyrrolidin-3-yl)oxy)phenyl)piperazin-1-yl)ethyl)-8-(furan-2-yl)thiazolo[5,4-e][1,2,4]triazolo[1,5-c]pyrimidin-2(3H)-one], for which, in the data set “in vitro”, the efflux ratio at 120 min, 2 μM was determined as 118. For the same compound, the figures for the IC50 on A2A receptor (setting [1]) and on A2A receptor (setting [2]) were 0.4 nM and 19 nM, respectively.

Turning to `NCCNC(=O)c1ccc(N2CCN(CCn3c(=O)sc4c3nc(N)n3nc(-c5ccco5)nc43)CC2)c(F)c1` [Compound 30, 4-(4-(2-(5-amino-8-(furan-2-yl)-2-oxothiazolo[5,4-e][1,2,4]triazolo[1,5-c]pyrimidin-3(2H)-yl)ethyl)piperazin-1-yl)-N-(2-aminoethyl)-3-fluorobenzamide], the efflux ratio at 120 min, 2 μM in the data set “in vitro” came to 3. Also, the IC50 on A2A receptor (setting [1]) came to 0.4 nM; at A2A receptor (setting [3]), 1 nM; on A2A receptor (setting [2]), 42 nM.

Turning to `Nc1nc2c(sc(=O)n2CCN2CCN(c3ccc(C(=O)NCC4COCCN4)cc3F)CC2)c2nc(-c3ccco3)nn12` (stereo not drawn) [Compound 107, 4-(4-(2-(5-amino-8-(furan-2-yl)-2-oxothiazolo[5,4-e][1,2,4]triazolo[1,5-c]pyrimidin-3(2H)-yl)ethyl)piperazin-1-yl)-3-fluoro-N-(morpholin-3-ylmethyl)benzamide], the efflux ratio at 120 min, 2 μM in the data set “in vitro” stood at 680. Further, the values for the IC50 on A2A receptor (setting [1]) and on A2A receptor (setting [2]) were 0.1 nM and 35 nM, respectively.

Take `Nc1nc2c(sc(=O)n2CCN2CCN(c3cc(OCC4COCCN4)c(F)cc3F)CC2)c2nc(-c3ccco3)nn12` (stereo not drawn) [Compound 90, 5-amino-3-(2-(4-(2,4-difluoro-5-(morpholin-3-ylmethoxy)phenyl)piperazin-1-yl)ethyl)-8-(furan-2-yl)thiazolo[5,4-e][1,2,4]triazolo[1,5-c]pyrimidin-2(3H)-one]: in the data set “in vitro”, the efflux ratio at 120 min, 2 μM is 86. Moreover, the IC50 turned out to be 5.7 nM on A2A receptor (setting [1]) and 24 nM on A2A receptor (setting [2]).

Regarding `C[S@+]([O-])CCNC(=O)c1cc(N2CCN(CCn3c(=O)sc4c3nc(N)n3nc(-c5ccco5)nc43)CC2)c(F)cc1F` [Compound 113, (S)-5-(4-(2-(5-amino-8-(furan-2-yl)-2-oxothiazolo[5,4-e][1,2,4]triazolo[1,5-c]pyrimidin-3(2H)-yl)ethyl)piperazin-1-yl)-2,4-difluoro-N-(2-(methylsulfinyl)ethyl)benzamide], the efflux ratio at 120 min, 2 μM in the data set “in vitro” was 374. The half-inhibitory concentration (IC50) on A2A receptor (setting [1]) is 0.4 nM; at A2A receptor (setting [2]), 37 nM.

As to `CN(C)CCNC(=O)COc1ccc(N2CCN(CCn3c(=O)sc4c3nc(N)n3nc(-c5ccco5)nc43)CC2)c(F)c1` [Compound 51, 2-(4-(4-(2-(5-amino-8-(furan-2-yl)-2-oxothiazolo[5,4-e][1,2,4]triazolo[1,5-c]pyrimidin-3(2H)-yl)ethyl)piperazin-1-yl)-3-fluorophenoxy)-N-(2-(dimethylamino)ethyl)acetamide], the efflux ratio at 120 min, 2 μM in the data set “in vitro” came out at 469. For the same compound, the IC50 on A2A receptor (setting [1]) is 0.3 nM; on A2A receptor (setting [2]), 16 nM.

On to `CC(C)(O)COc1ccc(N2CCN(CCn3c(=O)sc4c3nc(N)n3nc(-c5ccco5)nc43)CC2)c(F)c1` [Compound 85, 5-amino-3-(2-(4-(2-fluoro-4-(2-hydroxy-2-methylpropoxy)phenyl)piperazin-1-yl)ethyl)-8-(furan-2-yl)thiazolo[5,4-e][1,2,4]triazolo[1,5-c]pyrimidin-2(3H)-one], for which, in “in vitro”, the efflux ratio at 120 min, 2 μM was 5. Besides, the results for the IC50 on A2A receptor (setting [1]) and at A2A receptor (setting [2]) were 0.4 nM and 220 nM, respectively.

Regarding `CN(C)CCNC(=O)COc1cc(N2CCN(CCn3c(=O)sc4c3nc(N)n3nc(-c5ccco5)nc43)CC2)c(F)cc1F` [Compound 63, 2-(5-(4-(2-(5-amino-8-(furan-2-yl)-2-oxothiazolo[5,4-e][1,2,4]triazolo[1,5-c]pyrimidin-3(2H)-yl)ethyl)piperazin-1-yl)-2,4-difluorophenoxy)-N-(2-(dimethylamino)ethyl)acetamide], the efflux ratio at 120 min, 2 μM in “in vitro” stood at 264. Moreover, the IC50 amounted to 0.3 nM at A2A receptor (setting [1]), 1 nM on A2A receptor (setting [3]) and 12 nM at A2A receptor (setting [2]).

Consider `Nc1nc2c(sc(=O)n2CCN2CCN(c3ccc(O[C@@H]4CNC[C@H]4F)cc3F)CC2)c2nc(-c3ccco3)nn12` [Compound 101, 5-amino-3-(2-(4-(2-fluoro-4-(((3R,4R)-4-fluoropyrrolidin-3-yl)oxy)phenyl)piperazin-1-yl)ethyl)-8-(furan-2-yl)thiazolo[5,4-e][1,2,4]triazolo[1,5-c]pyrimidin-2(3H)-one], for which the efflux ratio at 120 min, 2 μM in the data set “in vitro” came out at 81. Besides, the IC50 at A2A receptor (setting [1]) came out at 0.7 nM; on A2A receptor (setting [2]), 124 nM.
